Assay results published in ChEMBL document CHEMBL3885881, “DrugMatrix”.

Species: Rattus norvegicus
Test: DrugMatrix - Regimen: Daily Repeat
Type: toxicity, organism-based, Sprague-Dawley
Design: regimen Daily Repeat, gender Male, age 6-8 weeks
Details: in vivo, po, route oral GAVAGE, […]; for ABSOLUTE BASOPHIL / ABSOLUTE EOSINOPHIL / ABSOLUTE LYMPHOCYTE / ABSOLUTE MONOCYTE / ABSOLUTE SEGMENTED NEUTROPHIL / BASOPHIL / EOSINOPHIL / ERYTHROCYTE COUNT / HEMATOCRIT / HEMOGLOBIN / LEUKOCYTE COUNT / LYMPHOCYTE / MEAN CORPUSCULAR HEMOGLOBIN / MEAN CORPUSCULAR HEMOGLOBIN CONCENTRATION / MEAN CORPUSCULAR VOLUME / MONOCYTE / NEUTROPHIL / NUCLEATED RED BLOOD CELLS / PLATELET COUNT: tissue Blood; for ALANINE AMINOTRANSFERASE / ALBUMIN / ALKALINE PHOSPHATASE / ASPARTATE AMINOTRANSFERASE / BLOOD UREA NITROGEN / CARBON DIOXIDE / CHLORIDE / CHOLESTEROL / CREATINE PHOSPHOKINASE / CREATININE / GLUCOSE / LACTATE DEHYDROGENASE / LIPASE / PHOSPHORUS / POTASSIUM / SODIUM / TOTAL BILIRUBIN / TOTAL PROTEIN / URIC ACID: tissue Plasma
[1] = 20 mg/kg, 72 h, dose level Low, time 3 day
[2] = 20 mg/kg, 120 h, dose level Low, time 5 day
[3] = 62 mg/kg, 72 h, dose level High, time 3 day
[4] = 62 mg/kg, 120 h, dose level High, time 5 day

In the case of `CCCSc1ccc2nc(NC(=O)OC)[nH]c2c1` [ALBENDAZOLE], the “ABSOLUTE BASOPHIL” value [1] was 0 CELLS/uL, the “ABSOLUTE EOSINOPHIL” value [1] was 0 CELLS/uL and the “ABSOLUTE LYMPHOCYTE” value [1] was 12808 CELLS/uL. For the same compound, the “ABSOLUTE MONOCYTE” value [1] was 184.67 CELLS/uL, the “ABSOLUTE SEGMENTED NEUTROPHIL” value [1] was 1574 CELLS/uL and the BASOPHIL [1] was 0%. For the same compound, the EOSINOPHIL [1] was 0%, the “ERYTHROCYTE COUNT” value [1] was 5.37 x10E6/uL and the HEMATOCRIT [1] was 33.33%. The HEMOGLOBIN [1] was 13.47 G/DL, the “LEUKOCYTE COUNT” value [1] was 14.57 x10E3/uL and the LYMPHOCYTE [1] was 88.67%. For the same compound, the “MEAN CORPUSCULAR HEMOGLOBIN” value [1] was 25.17 pg, the “MEAN CORPUSCULAR HEMOGLOBIN CONCENTRATION” value [1] was 40.47 G/DL and the “MEAN CORPUSCULAR VOLUME” value [1] was 62.17 fL. For the same compound, the MONOCYTE [1] was 1.33%, the NEUTROPHIL [1] was 10% and the “NUCLEATED RED BLOOD CELLS” value [1] was 0.33 /100WBC. The “PLATELET COUNT” value [1] was 1157.33 x10E3/uL, the “ALANINE AMINOTRANSFERASE” value [1] was 56.33 u/L and the ALBUMIN [1] was 3.6 G/DL. The “ALKALINE PHOSPHATASE” value [1] was 430 u/L, the “ASPARTATE AMINOTRANSFERASE” value [1] was 87.33 u/L and the “BLOOD UREA NITROGEN” value [1] was 13.33 mg/dL. For the same compound, the “CARBON DIOXIDE” value [1] was 24.67 mmol/L, the CHLORIDE [1] was 101 MEQ/L and the CHOLESTEROL [1] was 64 mg/dL. For the same compound, the “CREATINE PHOSPHOKINASE” value [1] was 390.67 u/L, the CREATININE [1] was 0.21 mg/dL and the GLUCOSE [1] was 220.67 mg/dL. For the same compound, the “LACTATE DEHYDROGENASE” value [1] was 112.33 u/L, the LIPASE [1] was 10.67 u/L and the PHOSPHORUS [1] was 12.2 mg/dL. For the same compound, the POTASSIUM [1] was 6.27 MEQ/L, the SODIUM [1] was 141.23 MEQ/L and the “TOTAL BILIRUBIN” value [1] was 0.2 mg/dL. The “TOTAL PROTEIN” value [1] was 5.2 G/DL, the “URIC ACID” value [1] was 2.23 mg/dL and the “ABSOLUTE BASOPHIL” value [2] was 0 CELLS/uL. The “ABSOLUTE EOSINOPHIL” value [2] was 69.33 CELLS/uL, the “ABSOLUTE LYMPHOCYTE” value [2] was 7738 CELLS/uL and the “ABSOLUTE MONOCYTE” value [2] was 149.67 CELLS/uL. For the same compound, the “ABSOLUTE SEGMENTED NEUTROPHIL” value [2] was 776.33 CELLS/uL, the BASOPHIL [2] was 0% and the EOSINOPHIL [2] was 0.67%. For the same compound, the “ERYTHROCYTE COUNT” value [2] was 4.93 x10E6/uL, the HEMATOCRIT [2] was 31.3% and the HEMOGLOBIN [2] was 12.87 G/DL. The “LEUKOCYTE COUNT” value [2] was 8.73 x10E3/uL, the LYMPHOCYTE [2] was 89.33% and the “MEAN CORPUSCULAR HEMOGLOBIN” value [2] was 26.07 pg. The “MEAN CORPUSCULAR HEMOGLOBIN CONCENTRATION” value [2] was 41.1 G/DL, the “MEAN CORPUSCULAR VOLUME” value [2] was 63.4 fL and the MONOCYTE [2] was 1.67%. For the same compound, the NEUTROPHIL [2] was 8.33%, the “NUCLEATED RED BLOOD CELLS” value [2] was 0 /100WBC and the “PLATELET COUNT” value [2] was 1525.33 x10E3/uL. The “ALANINE AMINOTRANSFERASE” value [2] was 53.67 u/L, the ALBUMIN [2] was 4.03 G/DL and the “ALKALINE PHOSPHATASE” value [2] was 375.33 u/L. The “ASPARTATE AMINOTRANSFERASE” value [2] was 79 u/L, the “BLOOD UREA NITROGEN” value [2] was 15 mg/dL and the “CARBON DIOXIDE” value [2] was 26 mmol/L. The CHLORIDE [2] was 102.67 MEQ/L, the CHOLESTEROL [2] was 67 mg/dL and the “CREATINE PHOSPHOKINASE” value [2] was 225.67 u/L. The CREATININE [2] was 0.21 mg/dL, the GLUCOSE [2] was 161 mg/dL and the “LACTATE DEHYDROGENASE” value [2] was 141 u/L. It also gave an LIPASE [2] of 11.67 u/L, a PHOSPHORUS [2] of 10.97 mg/dL and a POTASSIUM [2] of 5.64 MEQ/L. For the same compound, the SODIUM [2] was 141.93 MEQ/L, the “TOTAL BILIRUBIN” value [2] was 0.1 mg/dL and the “TOTAL PROTEIN” value [2] was 5.5 G/DL. For the same compound, the “URIC ACID” value [2] was 1.37 mg/dL, the “ABSOLUTE BASOPHIL” value [3] was 0 CELLS/uL and the “ABSOLUTE EOSINOPHIL” value [3] was 0 CELLS/uL. The “ABSOLUTE LYMPHOCYTE” value [3] was 10254.67 CELLS/uL, the “ABSOLUTE MONOCYTE” value [3] was 0 CELLS/uL and the “ABSOLUTE SEGMENTED NEUTROPHIL” value [3] was 712 CELLS/uL. The BASOPHIL [3] was 0%, the EOSINOPHIL [3] was 0% and the “ERYTHROCYTE COUNT” value [3] was 5.64 x10E6/uL. The HEMATOCRIT [3] was 34.47%, the HEMOGLOBIN [3] was 13.47 G/DL and the “LEUKOCYTE COUNT” value [3] was 10.97 x10E3/uL. The LYMPHOCYTE [3] was 94%, the “MEAN CORPUSCULAR HEMOGLOBIN” value [3] was 24 pg and the “MEAN CORPUSCULAR HEMOGLOBIN CONCENTRATION” value [3] was 39.13 G/DL. The “MEAN CORPUSCULAR VOLUME” value [3] was 61.27 fL, the MONOCYTE [3] was 0% and the NEUTROPHIL [3] was 6%. For the same compound, the “NUCLEATED RED BLOOD CELLS” value [3] was 0 /100WBC, the “PLATELET COUNT” value [3] was 1007.33 x10E3/uL and the “ALANINE AMINOTRANSFERASE” value [3] was 44 u/L. The ALBUMIN [3] was 4.13 G/DL, the “ALKALINE PHOSPHATASE” value [3] was 381 u/L and the “ASPARTATE AMINOTRANSFERASE” value [3] was 99.67 u/L. For the same compound, the “BLOOD UREA NITROGEN” value [3] was 11 mg/dL, the “CARBON DIOXIDE” value [3] was 27.33 mmol/L and the CHLORIDE [3] was 101.33 MEQ/L. For the same compound, the CHOLESTEROL [3] was 99 mg/dL, the “CREATINE PHOSPHOKINASE” value [3] was 278 u/L and the CREATININE [3] was 0.13 mg/dL. The GLUCOSE [3] was 161.33 mg/dL, the “LACTATE DEHYDROGENASE” value [3] was 198.67 u/L and the LIPASE [3] was 11.67 u/L. For the same compound, the PHOSPHORUS [3] was 10.53 mg/dL, the POTASSIUM [3] was 5.98 MEQ/L and the SODIUM [3] was 141.53 MEQ/L. The “TOTAL BILIRUBIN” value [3] was 0.17 mg/dL, the “TOTAL PROTEIN” value [3] was 5.8 G/DL and the “URIC ACID” value [3] was 1.43 mg/dL. For the same compound, the “ABSOLUTE BASOPHIL” value [4] was 0 CELLS/uL, the “ABSOLUTE EOSINOPHIL” value [4] was 0 CELLS/uL and the “ABSOLUTE LYMPHOCYTE” value [4] was 7019.67 CELLS/uL. For the same compound, the “ABSOLUTE MONOCYTE” value [4] was 23.67 CELLS/uL, the “ABSOLUTE SEGMENTED NEUTROPHIL” value [4] was 190 CELLS/uL and the BASOPHIL [4] was 0%. For the same compound, the EOSINOPHIL [4] was 0%, the “ERYTHROCYTE COUNT” value [4] was 5.03 x10E6/uL and the HEMATOCRIT [4] was 31%. For the same compound, the HEMOGLOBIN [4] was 12.5 G/DL, the “LEUKOCYTE COUNT” value [4] was 7.23 x10E3/uL and the LYMPHOCYTE [4] was 97%. For the same compound, the “MEAN CORPUSCULAR HEMOGLOBIN” value [4] was 24.9 pg, the “MEAN CORPUSCULAR HEMOGLOBIN CONCENTRATION” value [4] was 40.33 G/DL and the “MEAN CORPUSCULAR VOLUME” value [4] was 61.77 fL. For the same compound, the MONOCYTE [4] was 0.33%, the NEUTROPHIL [4] was 2.67% and the “NUCLEATED RED BLOOD CELLS” value [4] was 0 /100WBC. The “PLATELET COUNT” value [4] was 1425 x10E3/uL, the “ALANINE AMINOTRANSFERASE” value [4] was 29.33 u/L and the ALBUMIN [4] was 4.03 G/DL. The “ALKALINE PHOSPHATASE” value [4] was 247.67 u/L, the “ASPARTATE AMINOTRANSFERASE” value [4] was 66.33 u/L and the “BLOOD UREA NITROGEN” value [4] was 12.33 mg/dL. For the same compound, the “CARBON DIOXIDE” value [4] was 24.33 mmol/L, the CHLORIDE [4] was 101.33 MEQ/L and the CHOLESTEROL [4] was 90.67 mg/dL. The “CREATINE PHOSPHOKINASE” value [4] was 237.67 u/L, the CREATININE [4] was 0.11 mg/dL and the GLUCOSE [4] was 141.33 mg/dL. The “LACTATE DEHYDROGENASE” value [4] was 106.33 u/L, the LIPASE [4] was 11 u/L and the PHOSPHORUS [4] was 11.33 mg/dL. The POTASSIUM [4] was 6.31 MEQ/L, the SODIUM [4] was 141.93 MEQ/L and the “TOTAL BILIRUBIN” value [4] was 0.27 mg/dL. The “TOTAL PROTEIN” value [4] was 5.37 G/DL and the “URIC ACID” value [4] was 1.77 mg/dL.
